Like-named read-outs stand apart in the source and are kept apart here.
Columns and labels:
[1] = tested on: human skin fibroblasts (CCD25Sk); assay: [3H]-thymidine incorporation (DNA biosynthesis), normal cells; format: cell-based; conditions: Homo sapiens, Skin fibroblast, read-out: IC50, effect on DNA biosynthesis ([3H]-thymidine incorporation)
Protocol: (§1) The inhibition of DNA biosynthesis was evaluated using [^3H]-thymidine incorporation into the DNA of melanoma cells (C32, A375) and fibroblasts treated with the studied compounds [21]. The cells were briefly seeded in 24-well plates (1 × 10^5 cells per well) and allowed to adhere for 24 h. […] After incubation for 24, 48, and 72 h, the cells were rinsed three times with PBS. Then, cells were lysed in 1 mL of 0.1 M NaOH containing 1% SDS. The cell lysate was moved into scintillation vials containing scintillation liquid, and the radioactivity of the samples was measured using a liquid scintillation analyzer (Perkin-Elmer, Waltham, MA, USA).

C32 melanoma cells [2] = assay: Apoptosis assay, annexin V/PI flow cytometry, C32; format: cell-based, human; conditions: C32, 25 µM, 48 h
Protocol: (§2) Firstly, cells were placed in 6-well plates at a density of 1 × 10^5 cells per well and allowed to adhere for 24 h. Then, cells were treated with 25 µM, 50 µM, and 100 μM of the selected flavonoids (1, 6, 15, 16, 17, 37) and incubated for 48 h. Floating and adherent cells were collected and assayed using the manufacturer’s protocol supported by the Dead Cell Apoptosis Kit for flow cytometry. Concisely, 100 μL of an annexin-binding buffer containing a 5 μL annexin V-FITC conjugate solution and 1 μg/mL PI (propidium iodide) was used to disperse the cells. After 15 min of incubation, an additional 400 μL of the mentioned buffer was added. The cells were analyzed with a DxFLEX flow cytometer (Beckman Coulter, Brea, CA, USA).

A375 cells [3] = tested on: A375 cells; set-up: method as in PMID 26911838; conditions: 10 and 20 μM, dose-dependent; cited from earlier work
A375 cells [4] = tested on: A375 cells; set-up: method as in PMID 28260058; conditions: 40 µM; cited from earlier work
A375 melanoma cells [5] = assay: [3H]-thymidine incorporation (DNA biosynthesis), A375; format: cell-based, human; conditions: read-out: IC50, effect on DNA biosynthesis ([3H]-thymidine incorporation)
Protocol: as §1

A375 melanoma cells [6] = assay: Apoptosis assay, annexin V/PI flow cytometry, A375; format: cell-based, human; conditions: 48 h
Protocol: as §2

[7] = tested on: cleaved caspase-3 and cleaved caspase-7 in A375 cells; assay: Immunofluorescence of cleaved caspase-3/-7, A375; format: cell-based, human; conditions: A375, 48 h, immunofluorescent staining
Protocol: Firstly, to examine fluorescent signals, cells were placed in the bottom of 96-well black plates at 1 × 10^4 cells per well and permitted to adhere for 24 h. […] After incubating and removing the medium, cells were fixed in 4% paraformaldehyde for 15 min. Later, cells were rinsed three times with PBS and permeabilized with 0.1% Triton X-100 for 5 min at room temperature. The 10% heat-inactivated goat serum in the PBS was used to block non-specific binding. Subsequently, cells were treated with the following antibodies overnight: anti-cleaved caspase 3 and anti-cleaved caspase-7. […] Cell nuclei were stained with Hoechst 33342 and F-actin was stained with Phalloidin-Atto 488. Fluorescent signals were captured using a BD Pathway 855 confocal microscope (Becton Dickinson, Franklin Lakes, NJ, USA). The mean fluorescence intensity was calculated using ImageJ software (National Institutes of Health, Bethesda, Rockville, MD, USA).

[8] = Neutral red uptake (NRU) assay, normal cells; conditions: human, human skin fibroblasts (CCD25Sk)
Protocol: (§3) The NRU (neutral red uptake) was conducted as previously described by Szoka and co-workers, with some modifications [22]. Briefly, melanoma cells and fibroblasts were seeded in microplates at the density of 1 × 10^4 cells per well and allowed to adhere for 24 h. […] After treatment, the culture medium was replaced with a neutral red solution (40 µg/mL). An additional 2 h of incubation was performed. The neutral red solution was then removed and the neutral red accumulated in the cells was dissolved in 50% EtOH with 1% of the glacial acetic acid. The absorbance was estimated at 540 nm and IC50 values were calculated using GraphPad Prism software (GraphPad Software, San Diego, CA, USA).

[9] = tested on: caspases, PARP, phospho-RSK in A375 cells; assay: Western immunoblot of apoptosis mediators and RSK, A375; format: cell-based, human; conditions: A375, 48 h, Western blot
Protocol: (§4) Floating cells were harvested by centrifugation of the conditioned media (300× g, 5 min). Cell pellet and adherent cells were lysed in a cell lysis buffer supplemented with inhibitors of proteases and phosphatases. The cell lysate was sonicated (2 × 10 s) on ice with an ultrasonic homogenizer (UP200S, Hielscher Ultrasonics GmbH, Teltow, Germany) and centrifuged for 10 min at 10,000× g. The supernatant was collected and stored in a freezer at −70 °C. Protein concentrations in the cell supernatants were determined using a Lowry assay. Obtained proteins were dissolved on SDS-PAGE gels (7.5%, 10%, or 12%) using the Mini-Protean Tetra system. The proteins were transferred to nitrocellulose membranes using the Mini Trans-Blot Cell wet blotting system. The 5% skim milk was used to block membranes. Then, membranes were probed for 24 h at 4 °C with the following antibodies: anti-phospho-RSK, anti-RSK, anti-PARP, anti-cleaved PARP, anti-caspase-8, anti-caspase-9, anti-caspase-7, anti-caspase-3, and anti-actin. Membranes were incubated with an ECL-HRP (enhanced chemiluminescence-horseradish peroxidase) substrate, and the signal was spotted using the BioSpectrum Imaging System and VisionWorks LS software 7.0 (Ultra-Violet Products, Ltd., San Gabriel, CA, USA). The intensity of the bands was quantified by densitometric analysis using UVIBand software, version 15.08d (Uvitec Ltd., Cambridge, UK).

in vitro = conditions: human
Protocol: (§5) The MTT colorimetric assay was performed as a preliminary evaluation of the cytotoxicity of the selected flavonoids according to the method described and validated by Strawa et al. [21]. Briefly, melanoma cells and fibroblasts were seeded in 96-well microplates at a density of 1 × 10^4 cells per well. Fibroblasts were used as a control cell line in order to assess the selectivity of the compounds. […] Subsequently, the cells were washed with PBS, incubated with MTT solution for 2 h, and lysed with dimethyl sulfoxide (DMSO) supplemented with 1% (v/v) Sorensen’s glycine buffer. The absorbance was measured using a microplate reader (EPOCH 2, BioTek, Winooski, VT, USA) at a wavelength of 570 nm. The compounds were used at a final DMSO concentration of no more than 0.1% (v/v) in each well. The results were generated from at least three independent experiments. […] The IC50 values were calculated with GraphPad Prism 9 software (GraphPad Software, San Diego, CA, USA).

A375 melanoma cells [10] = assay: MTT cell viability assay, A375;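 also: Read-out is formazan absorbance at 570 nm after 2 h with MTT, with compounds in at most 0.1% v/v DMSO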
Protocol: as §5

C32 melanoma cells [11] = assay: Neutral red uptake (NRU) assay, C32; conditions: Homo sapiens
Protocol: as §3

A375 melanoma cells [12] = assay: Neutral red uptake (NRU) assay, A375; conditions: Homo sapiens, read-out: IC50, cytotoxic activity, NRU assay
C32 melanoma cells [13] = assay: [3H]-thymidine incorporation (DNA biosynthesis), C32; format: cell-based, human; conditions: read-out: IC50, effect on DNA biosynthesis ([3H]-thymidine incorporation)
Protocol: as §1

C32 melanoma cells [14] = assay: MTT cell viability assay, C32; conditions: Homo sapiens, read-out: IC50, cytotoxic activity, MTT test;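 also: MTT added for 2 h, cells lysed in DMSO, absorbance read at 570 nm, compound vehicle kept at or below 0.1% DMSO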
[15] = tested on: caspases, PARP, phospho-RSK in C32 cells; assay: Western immunoblot of apoptosis mediators and RSK, C32; format: cell-based, human; conditions: C32, 48 h, Western blot
Protocol: as §4

[16] = tested on: cleaved caspase-3 and cleaved caspase-7 in C32 cells; assay: Immunofluorescence of cleaved caspase-3/-7, C32; format: cell-based, human; conditions: C32, 48 h, immunofluorescent staining
[17] = MTT cell viability assay, normal cells; conditions: human, human skin fibroblasts (CCD25Sk);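 also: fibroblasts served as non-cancer comparison line for selectivity versus melanoma cells, MTT reduction read as absorbance at 570 nm after 2 h dye exposure, compounds in ≤0.1% DMSO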
Protocol: as §5

[18] = tested on: SK-MEL-2 malignant melanoma cell line; set-up: method as in PMID 36991237; conditions: read-out: IC50, inhibition of viability, MTS test; cited from earlier work
[19] = tested on: G-361 malignant melanoma cell line; set-up: method as in PMID 36991237; conditions: read-out: IC50, inhibition of viability, MTS test; cited from earlier work
[20] = Homo sapiens, A-375, A375, 24 h
[21] = Homo sapiens, A-375, A375, 48 h
[22] = Homo sapiens, A-375, A375, 72 h
[23] = Homo sapiens, A-375, 24 h, read-out: IC50, cytotoxic activity, MTT test, A375, 24 h
[24] = Homo sapiens, A-375, 48 h, read-out: IC50, cytotoxic activity, MTT test, A375, 48 h
[25] = Homo sapiens, A-375, 72 h, read-out: IC50, cytotoxic activity, MTT test, A375, 72 h
[26] = C32, 24 h, read-out: IC50, cytotoxic activity, NRU assay, C32, 24 h
[27] = C32, 48 h, read-out: IC50, cytotoxic activity, NRU assay, C32, 48 h
[28] = C32, 72 h, read-out: IC50, cytotoxic activity, NRU assay, C32, 72 h

| Compound | IC50 ([1]; 24 h) [µM] | IC50 ([1]; 48 h) [µM] | IC50 ([1]; 72 h) [µM] | IC50 (A375 melanoma cells [5]; A375, 48 h) [µM] | IC50 (A375 melanoma cells [5]; [20]) [µM] | IC50 (A375 melanoma cells [5]; [21]) [µM] | IC50 (A375 melanoma cells [5]; [22]) [µM] | IC50 at 24 h [8] [µM] | IC50 at 48 h [8] [µM] | IC50 at 72 h [8] [µM] | IC50 (A375 melanoma cells [10]; [23]) [µM] | IC50 (A375 melanoma cells [10]; [24]) [µM] | IC50 (A375 melanoma cells [10]; [25]) [µM] | IC50 (C32 melanoma cells [11]; [26]) [µM] | IC50 (C32 melanoma cells [11]; [27]) [µM] | IC50 (C32 melanoma cells [11]; [28]) [µM] | IC50 (A375 melanoma cells [12]; A-375, 24 h) [µM] | IC50 (A375 melanoma cells [12]; A-375, 48 h) [µM] | IC50 (A375 melanoma cells [12]; A-375, 72 h) [µM] | IC50 (C32 melanoma cells [13]; Homo sapiens, C32, C32, 24 h) [µM] | also measured |
| --- | --- | --- | --- | --- | --- | --- | --- | --- | --- | --- | --- | --- | --- | --- | --- | --- | --- | --- | --- | --- | --- |
| O=c1cc(-c2ccc(O)cc2)oc2cc(O)cc(O)c12 [Compound 1, apigenin] | 188 ± 8.1 | 189 ± 9.5 | > 200 | 28.6 ± 1.8 | 87.7 ± 4.2 | 28.6 ± 0.84 | 23.4 ± 1.6 | > 200 | 87.8 ± 5.8 | 58 ± 3.2 | > 200 | 31.9 ± 3 | 20.7 ± 1.5 | 100 to 200 | 25.7 ± 1.6 | 22.4 ± 1.5 | 64.5 ± 4.3 | 24.7 ± 2.4 | 21.2 ± 1.4 | > 200 | percentage of early apoptotic cells (C32 melanoma cells [2]): 13.3 ± 2.4%; percentage of late apoptotic cells (C32 melanoma cells [2]): 29.4 ± 3.3%; A375 cell motility and invasion (A375 cells [3]): significantly inhibited; A375 cell viability, MTT assay (A375 cells [4]): decreased A375 cell viability; level of early apoptotic cells (A375 melanoma cells [6]; A375, 50 µM): 34.2 ± 2.8%; level of late apoptotic cells (A375 melanoma cells [6]; A375, 50 µM): 7.1 ± 1.6%; level of cleaved caspase-3 [7]: slightly increased; cleavage of initiator caspases, caspase-9 and caspase-8 [9]: cleavage of both initiator caspases; levels of the caspases-3 and -7 zymogens [9]: decreased levels; IC50 at 24 h (in vitro): > 200 µM; IC50 at 48 h (in vitro): > 200 µM; IC50 at 72 h (in vitro): 100 to 200 µM; IC50 (C32 melanoma cells [13]; C32, 48 h): 27 ± 1.4 µM; IC50 (C32 melanoma cells [13]; Homo sapiens, C32, C32, 48 h): 27.1 ± 0.49 µM; IC50 (C32 melanoma cells [13]; Homo sapiens, C32, C32, 72 h): 22.5 ± 1.2 µM; IC50 (C32 melanoma cells [14]; C32, 24 h): > 200 µM; IC50 (C32 melanoma cells [14]; C32, 48 h): 63.1 ± 4.7 µM; IC50 (C32 melanoma cells [14]; C32, 72 h): 31.8 ± 2.5 µM; cleaved PARP and caspase-9 [15]: generated cleaved PARP and caspase-9; caspase-3 expression [16]: notably extended |
| O=c1cc(-c2ccc(O)c(O)c2)oc2cc(O)cc(O)c12 [Compound 6, luteolin] | > 200 | > 200 | > 200 | 38.5 ± 2.9 | > 200 | 38.6 ± 0.91 | 30.9 ± 1.8 | > 200 | 45.2 ± 2.6 | 21.4 ± 1.7 | > 200 | 38.2 | 24.6 ± 1.6 | 41.3 ± 3.8 | 13.1 | 12.6 ± 1.2 | 58.1 ± 4.2 | 25.7 | 23.9 ± 0.23 | > 200 | level of early apoptotic cells (A375 melanoma cells [6]; A375, 25 µM): 63.6 ± 6.1%; level of late apoptotic cells (A375 melanoma cells [6]; A375, 25 µM): 13.0 ± 1.8%; level of cleaved caspase-3 [7]: slightly increased; IC50 at 24 h [17]: > 200 µM; IC50 at 48 h [17]: 69.7 ± 5.2 µM; IC50 at 72 h [17]: 20.1 ± 1.4 µM; cleavage of initiator caspases, caspase-9 and caspase-8 [9]: cleavage of both initiator caspases; levels of the caspases-3 and -7 zymogens [9]: decreased levels; IC50 (A375 melanoma cells [10]; read-out: IC50, cytotoxic activity, MTT test, A375, 48 h): 38.2 ± 4.1 µM; IC50 (C32 melanoma cells [13]; Homo sapiens, C32, C32, 48 h): 30.9 ± 2.2 µM; IC50 (C32 melanoma cells [13]; Homo sapiens, C32, C32, 72 h): 24.5 ± 1.81 µM; IC50 (C32 melanoma cells [14]; C32, 24 h): > 200 µM; IC50 (C32 melanoma cells [14]; C32, 48 h): 42.1 ± 3.5 µM; IC50 (C32 melanoma cells [14]; C32, 72 h): 13.1 ± 1.3 µM; cleaved PARP and caspase-9 [15]: generated cleaved PARP and caspase-9; caspase-3 expression [16]: notably extended; level of the cleaved caspase-7 [16]: slightly increased |
| O=c1cc(-c2ccccc2)oc2c(O)c(O)ccc12 [Compound 16, 7,8-dihydroxyflavone] | 81.6 ± 5.8 | 64.6 ± 2.8 | 37 ± 2.5 | 29.7 ± 1.6 | 62.1 ± 3.9 | 29.7 ± 0.62 | 20.5 ± 2.2 | > 200 | 100 to 200 | 72.9 ± 5.6 | 100 to 200 | 33.2 ± 3.2 | 20.5 ± 2.2 | > 200 | 19.9 ± 1.2 | 16.5 ± 2.1 | 100 to 200 | 36 ± 3.5 | 27.4 ± 2.4 | 38.1 ± 1.5 | IC50 [18]: 200 to 250 µM; level of early apoptotic cells (A375 melanoma cells [6]; A375, 25 µM): 49.1 ± 3.9%; level of late apoptotic cells (A375 melanoma cells [6]; A375, 25 µM): 6.4 ± 1.5%; IC50 [19]: 200 to 250 µM; IC50 at 24 h [17]: > 200 µM; IC50 at 48 h [17]: 100 to 200 µM; IC50 at 72 h [17]: 93.3 ± 8 µM; cleavage of caspase-9 [9]: weak cleavage; expression of cleaved caspase-8 [9]: increased; phosphorylation of the RSK protein [9]: impaired; IC50 (C32 melanoma cells [13]; C32, 48 h): 18.4 ± 1.4 µM; IC50 (C32 melanoma cells [13]; Homo sapiens, C32, C32, 48 h): 18.4 ± 0.42 µM; IC50 (C32 melanoma cells [13]; Homo sapiens, C32, C32, 72 h): 12.8 ± 0.9 µM; IC50 (C32 melanoma cells [14]; C32, 24 h): 100 to 200 µM; IC50 (C32 melanoma cells [14]; C32, 48 h): 39.2 ± 2.6 µM; IC50 (C32 melanoma cells [14]; C32, 72 h): 26.2 ± 2.8 µM; level of the cleaved caspase-7 [16]: slightly increased |

From PMC10854695, “Using Flavonoid Substitution Status to Predict Anticancer Effects in Human Melanoma Cancers: An In Vitro Study” (Cancers, 2024)
